pIC50: −log10 of the molar value. “Also recorded” adds a separate entry of the source. Where only a bound is given, the exact number is not on record here.

Results on 15 compounds are retold here after patent US10906881B2, “Inhibitors of arginine gingipain” (priority 2015, dated 2021).

One data set addresses T1, RgpB (Porphyromonas gingivalis, UniProt P95493).
T1 construct: 0.02 nM RgpB, isolated from culture of Porphyromonas gingivalis; made in house; host or cells: Porphyromonas gingivalis culture (native enzyme purified from the bacterium, not recombinant)
Put plainly: RgpB fluorogenic inhibition assay. Format: biochemical. How it is done:
The capacities of compounds of the present invention to inhibit the activity of RgpB were measured in a fluorogenic assay similar to those described in Barret Biochemical Journal. 1980, 187(3), 909. The specific assay conditions were as follows. Buffer: pH=7.5, 100 mM Tris-HCl, 75 mM NaCl, 2.5 mM CaCl2, 10 mM cysteine, 1% DMSO after all additions. Protein: 0.02 nM RgpB, isolated from culture of Porphyromonas gingivalis, as described in Pike et al. J Biol. Chem. 1994, 269(1), 406, and Potempa and Nguyen. Current Protocols in Protein Scienc. 2007, 21.20.1-21.20.27. Fluorogenic substrate: 10 uM Boc-Phe-Ser-Arg-MCA. Time=90 minutes. Temperature=37° C. Each compound: 10 concentrations, starting at either 100 uM or 100 nM, with lower concentrations generated by serial 3-fold dilutions. By testing a range of concentrations for each compound, the concentration required to inhibit the activity of RgpB by 50% (the “IC50”) was determined. Under the described assay conditions, signal-to-noise was excellent, and Z factor was greater than 0.7.
(§1) The inhibitory of activity of compounds described herein was tested against Kgp, RgpB, RgpA, and trypsin.

In another data set the target is T2, trypsin (Bos taurus, UniProt P00760).
T2 construct: gene PRSS1
T2 sequence (P00760 24-246): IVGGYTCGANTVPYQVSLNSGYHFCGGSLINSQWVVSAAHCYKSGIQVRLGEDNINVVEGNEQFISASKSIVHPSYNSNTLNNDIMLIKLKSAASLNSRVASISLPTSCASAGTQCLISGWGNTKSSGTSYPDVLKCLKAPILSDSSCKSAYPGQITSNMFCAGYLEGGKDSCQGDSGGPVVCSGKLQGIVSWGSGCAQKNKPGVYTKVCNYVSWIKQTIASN
Put plainly: Trypsin inhibition assay. The class given is biochemical. As to the method: as §1

The target of another data set is RgpA (Porphyromonas gingivalis, UniProt B2RM93). As to the kind of experiment: RgpA inhibition assay. Format: biochemical. As to the method: as §1
Data set [1] concerns SH-SY5Y neuroblastoma cells. Put plainly: Rescue of neuroblastoma cells from P. gingivalis toxicity. The class given is cell-based. The settings on record: 4 μg/mL, P. gingivalis ATCC BAA-308, MOI 1:1000, 48 hours. How it is done: SH-SY5Y neuroblastoma cells were cultured based on established methods [Saberi S., et al. Cell Mol Neurobiol 2013. 33: 5 747-751]. The strain P. gingivalis ATCC BAA-308 was streaked onto a brain heart infusion agar (BHA), and the plate was incubated for 72 h at 37° C. in an anaerobic workstation with an atmosphere of 80% N2, 10% CO2, and 10% H2. The plates were removed from the anaerobic work station for testing and processed under ambient atmosphere. The bacteria were harvested and suspended in complete medium-Pen/Strep (without Pen/Strep). The turbidity of the suspension was adjusted to 0.5, as measured using a MicroScan® Turbidity Meter (Siemens), which is equivalent to ˜6×10^8 cfu/mL (for MOI 1:1000) and incubated with the cells for 48 hours. 4 μg/mL of Compound 13 was added to the media at the time of introduction of the bacteria. Results were recorded using a digital microscope camera (FIG. 5). […] Other compounds of the invention are tested as described for Compound 13.

Data set [2] relates to gingipain-containing P. gingivalis supernatant. Put plainly: Degradation of human collagen by P. gingivalis supernatant (SDS-PAGE). The class given is biochemical, Porphyromonas gingivalis. The settings on record: 50 μM inhibitor, 1h, pH 7.5. As to the method:
P. gingivalis was grown to exponential phase (OD 600 nm=0.6) in a Coy's anaerobic chamber under 5% hydrogen, 10% carbon dioxide, and […]. The bacteria were centrifuged at 5000×g for 10 min at 4° C., and then the supernatant was collected. The supernatant was concentrated by centrifugation at 5000×g for 60 min at 4° C. min using Corning Spin-X UF-20 concentrator tubes and then at 17,000×g for 30 min using Corning Spin-X UF500 concentrator tubes. 10 μg of Collagen type I was incubated with 0.6 μg of P. gingivalis culture supernatant for 1h in the absence or presence of 50 μM Rgp inhibitor (Compound 13, Table 1), 50 μM Kgp inhibitor ((S)—N-(6-guanidino-2-oxo-1-(2,3,5,6-tetrafluorophenoxy)hexan-3-yl)cyclopentanecarboxamide; described in U.S. Pat. Appl. Pub. No. 2016/0096830), or both. Reaction mixtures contained 5 mM cysteine, 20 mM sodium phosphate buffer, pH 7.5. After incubation, the reaction was terminated by the addition of protease inhibitor cocktail (Sigma). The samples were then analyzed by SDS-polyacrylamide gel electrophoresis. Following separation, the gels were stained with Biosafe Coomassie (Bio-Rad).

The nature of data set [3]: Plasma pharmacokinetics after subcutaneous delivery. The class given is in vivo. The settings on record: 10 mg/kg; for AUC(0-t): male, CD1, mouse, plasma, sc, mice. As to the method: Compound 13 was dissolved at a concentration of 1 mg/mL in water containing carboxymethylcellulose (2% w/w) or Pluronic F127 (25% w/w). Solutions were kept on ice, and 10 mg/kg of each solution was administered to 3 male CD1 mice. Plasma was collected at 7 time points. Concentrations in plasma were determined by HPLC with tandem mass (MS/MS) detection.
Plasma samples were precipitated with a mixture containing 80% acetonitrile. Samples were further diluted with water containing 0.1% formic acid. Chromatographic separation was performed on a reversed phase column (2.1×50 mm, particle size: […], Xbridge C8, Waters, USA). Components were separated using a linear gradient of acetonitrile containing 0.1% formic acid in ultrapurified H2O containing 0.1% formic acid (flow rate 0.2 mL/min).
MS analyses were performed using an API 5500 QTRAP system having an API 5500 QTRAP detector and a Turbo Ion Spray interface (both from Applied Biosystems, USA). The acquisitions were performed in positive ionization mode, with optimized settings for the analytes. The instrument was operated in multiple-reaction-monitoring (MRM) mode, the following transition was used to quantify compound 13; 433.4->112.1. Data were calibrated and quantified using the Analyst™ data system (Applied Biosystems) using the response of the analyte versus the concentration.

Another data set has as its target Kgp (Porphyromonas gingivalis, UniProt B2RLK2). As to the kind of experiment: Kgp inhibition assay. The class given is biochemical. As to the method: as §1
For another data set, the system named is P gingivalis W83. As to the kind of experiment: P. gingivalis infection of brain tissue in vivo (qPCR). Also on record: species or system BalbC mice. The settings on record: BID subcutaneously in 25% Pluronic F127, day 35-70. From the text: BalbC mice were given a tooth ligature and infected by oral lavage with P gingivalis W83 (1×10^9 CFU in 2% carboxymethyl cellulose) or vehicle for 6 weeks. Compound 13 was delivered BID subcutaneously in 25% Pluronic F127 on day 35-70. On day 70, mice were sacrificed and perfused with PBS prior to dissection. DNA was isolated from one quarter of the brain using a DNEasy Blood & Tissue Kit (Qiagen). Forward and reverse primers for RgpB were used for qPCR to quantify P. gingivalis DNA in the brain tissue. The forward primer sequence was 5′-[…]-3′ (SEQ ID NO: 1). The reverse primer sequence was 5′-[…]-3′ (SEQ ID NO: 2). The probe sequence was 5′-6-FAM-[…]-TAMRA-3′ (SEQ ID NO: 3).

The conditions of data set [4]: oral RTV 15 minutes prior to Kyt-36; from U.S. patent application Ser. No. 14/875,416; cited from earlier work.

In general, pIC50 refers to the IC50 on a negative log10 scale, so that one unit is a factor of ten. The low end stands for a high IC50, the high end for a low IC50. Turning to `N=C(N)NCCCC(NC(=O)[C@H]1CC[C@@H](N)C1)C(=O)c1nc2ccccc2s1` (single isomer, unassigned) [Compound 9], the pIC50 at RgpB was over 8.70.
As for `N=C(N)NCCCC(NC(=O)[C@H]1CC[C@@H](N)C1)C(=O)c1nc2ccccc2s1` (single isomer, unassigned) [Compound 10], the negative logarithm of the IC50 (pIC50) at trypsin is under 6.00.
`CC[C@H](NC(C)=O)C(=O)NC(CCCNC(=N)N)C(=O)c1nc2ccccc2s1` (single isomer, unassigned) [Compound 11] had a negative logarithm of the IC50 (pIC50) against trypsin of under 7.40.
As for `CC[C@H](NC(C)=O)C(=O)NC(CCCNC(=N)N)C(=O)c1nc2ccccc2s1` (single isomer, unassigned) [Compound 12], the negative logarithm of the IC50 (pIC50) against RgpB was over 8.70.
On the same count and under the same terms, to `N=C(N)NCCC[C@H](NC(=O)C1CCCC1)C(=O)c1nc2ccccc2s1` [Compound 1, N-[(1S)-1-(1,3-benzothiazole-2-carbonyl)-4-guanidino-butyl]cyclopentanecarboxamide] belongs over 9.00.
In the case of `CCCC(=O)N[C@@H](CCCNC(=N)N)C(=O)c1nc2ccccc2s1` [Compound 2, N-[(1S)-1-(1,3-benzothiazole-2-carbonyl)-4-guanidino-butyl]butanamide], the negative logarithm of the IC50 (pIC50) against RgpB is over 8.70; against trypsin, under 6.00.
For the compound `N=C(N)NCCC[C@H](NC(=O)c1ccccc1)C(=O)c1nc2ccccc2s1` [Compound 3, N-[(1S)-1-(1,3-benzothiazole-2-carbonyl)-4-guanidino-butyl]benzamide], the pIC50 against RgpB was over 8.70; on trypsin, under 6.00.
Consider `N=C(N)NCCC[C@H](NC(=O)c1ccccc1C(F)(F)F)C(=O)c1nc2ccccc2s1` [Compound 4, N-[(1S)-1-(1,3-benzothiazole-2-carbonyl)-4-guanidino-butyl]-2-(trifluoromethyl)benzamide], for which, on trypsin, the pIC50 is under 6.46.
Take `N=C(N)NCCC[C@H](NC(=O)CCCN)C(=O)c1nc2ccccc2s1` [Compound 5, 4-amino-N-[(1S)-1-(1,3-benzothiazole-2-carbonyl)-4-guanidino-butyl]butanamide]: the pIC50 at trypsin is under 6.00.
Consider `N=C(N)NCCC[C@H](NC(=O)[C@H]1CCCNC1)C(=O)c1nc2ccccc2s1` [Compound 6, (3S)—N-[(1S)-1-(1,3-benzothiazole-2-carbonyl)-4-guanidino-butyl]piperidine-3-carboxamide], for which the negative-log IC50 (pIC50) on trypsin was under 6.00.
Consider `N=C(N)NCCC[C@@H](NC(=O)[C@H]1CCCNC1)C(=O)c1nc2ccccc2s1` [Compound 7, (3S)—N-[(1R)-1-(1,3-benzothiazole-2-carbonyl)-4-guanidino-butyl]piperidine-3-carboxamide], for which the pIC50 on trypsin was under 6.00.
`N=C(N)NCCC[C@H](NC(=O)[C@H]1CCNC1)C(=O)c1nc2ccccc2s1` [Compound 8, (3S)—N-[1-(1,3-benzothiazole-2-carbonyl)-4-guanidino-butyl]pyrrolidine-3-carboxamide]: at trypsin, the pIC50 is under 6.00.
The AUC(0-t) is exposure summed from dosing to a finite time, without extrapolation to infinity. The low end stands for low exposure, the high end for high exposure. Turning to `N=C(N)NCCC[C@H](NC(=O)C1CCCC1)C(=O)COc1c(F)c(F)cc(F)c1F` [Compound 13, N-[(1S)-4-guanidino-1-[2-(2,3,5,6-tetrafluorophenoxy)acetyl]butyl]cyclopentanecarboxamide], the negative-log IC50 (pIC50) at RgpB was over 9.00; at RgpA, over 9.30; at Kgp, under 6.82. The “Rescue of cells from P. gingivalis toxicity” value in [1] was “can rescue; also recorded: prevented the toxicity”. Further, the “Degradation of collagen type I by P. gingivalis culture supernatant” value in [2] is recorded as “prevent degradation of collagen”. Besides, the “Plasma concentration over time” value in data set [3] (Pluronic F127 versus carboxymethylcellulose) was “increased concentration”. For the same compound, the results for the area under the curve AUC(0-t) in [3] (in 2% carboxymethylcellulose) and in data set [3] (in 25% Pluronic F127) were 687 ng·h/mL and 2120 ng·h/mL, respectively. Also, in the data set with P gingivalis W83, the “P. gingivalis DNA in brain tissue by qPCR” value is on record as “demonstrates efficacy”.
On to `[N-]=[N+]=Nc1cccc(C(=O)N[C@@H](CCCNC(=N)N)C(=O)COc2c(F)c(F)cc(F)c2F)c1` [Compound 14, 3-azido-N-[(1S)-4-guanidino-1-[2-(2,3,5,6-tetrafluorophenoxy)acetyl]butyl]benzamide], for which the negative logarithm of the IC50 (pIC50) against RgpA is over 9.30; against Kgp, under 6.35.
`CN(NC(=O)CC[C@H](NC(=O)OCc1ccccc1)C(=O)N[C@@H](CCCCN)C(=O)C(=O)NCc1ccccc1)c1ccccc1` [Kyt-36]: the Half-life result in [4] is given as “increases the half-life”.
